According to PubChem BioAssay AID1963422 (Molecular Pharmacology Branch, DTP, NCI, 2024):
“And” between values parts separate entries of the source, which are not always exact repeats. Equal values may be shown once.

Tested on: 463943-066-T-J2-PDC complex spheroid growth
Assay: Anticancer human tumor 463943-066-T-J2-PDC patient-derived colon adenocarcinoma cell line growth inhibition [Asc]
Conditions: for viability, T/C: stronger effect = lower value; active means viability on the fitted dose curve at most 10% of control; inactive means the rest
Experimental: Multicellular complex tumor spheroid response to apoptosis pathway targeting inhibitors Alrizomadlin, Pelcitoclax, and Dasminapant in combination with a variety of drugs and investigational agents in selected tumor cell lines
The MDM2 inhibitor alrizomadlin, the Bcl-2/Bcl-xL inhibitor pelcitoclax, and the IAPs inhibitor dasminapant were evaluated both individually and in combination with standard of care and investigational anticancer small molecules within a complex spheroid model of solid tumors. . Complex spheroids include a stromal component modeled by human endothelial cells (HUVEC) and fibroblasts modeled by human mesenchymal stem cells (MSCs). The concentration ranges selected for each drug and investigational agent were based upon clinically achievable concentrations if the clinical Cmax of the agent was known.
Compounds. The drugs and investigational agents: alrizomadlin (APG-115; NSC831270), pelcitoclax (APG-1252; NSC835773), dasminapant (APG-1387;NSC834197), TAK-243 (NSC785004), copanlisib (NSC809693), olaparib (NSC753686), talazoparib (NSC767125), cobimetinib (NSC 768068), eltanexor (KPT-8602, NSC 794443), abemaciclib (NSC 768073), sotorasib (NSC818433), adagrasib (NSC 831453), MRTX-1133 (NSC 836407), Iadademestat (ORY1001, NSC 806812), and RMC-4630 (NSC839698), were obtained from the NCI Developmental Therapeutics Program Chemical Repository. The FDA-approved anticancer drug set is available from the Developmental Therapeutics Program at https://dtp.cancer.gov/organization/dscb/obtaining/available plates.htm. […] The stock solutions were prepared in dimethyl sulfoxide (DMSO, Sigma-Aldrich, St. Louis, MO, cat. D2650) at 800-fold the tested concentration and stored at -70 degrees C prior to their use. All drugs and investigational agents were tested over a range starting from a high concentration at or near the clinical Cmax and decreasing in half-log increments. If the clinical Cmax for an agent had not been determined, the highest concentration tested was 10 microM.
The patient-derived cancer (PDC) cell lines include five colon adenocarcinomas: 186277-243-T-J2-PDC, 616215-338-R-J1-PDC, 439559-082-T-J2-PDC, 463943-066-T-J2-PDC, and 519858-162-T-J1-PDC; three pancreatic carcinomas: 323965-272-R-J2-PDC, 521955-158-R6-J3-PDC, and 521955-158-R2-J5-PDC; two uterine sarcomas: 327498-152-R-J2-PDC and 993429-296-R-J1-PDC; two rhabdomyosarcomas: 755483-174-R-J1-PDC and 772245-204-R-J1-PDC; two soft tissue sarcomas: 126254-015-R-J1-PDC and 494315-158-R-J1-PDC; two malignant fibrous histiocytomas: 317291-083-R-J1-PDC and 596521-263-R-J1-PDC; two breast carcinomas: 171881-019-R-J1-PDC and 885512-296-R-J2-PDC; and one ovarian carcinoma: 6556581-035-R-J-PDC were obtained from the NCI PDMR, (https://pdmr.cancer.gov). The established cell lines HSSY-2 synovial sarcoma (RRID:CVCL 8719), SYO-1 synovial sarcoma (RRID:CVCL_7146), MPNST malignant peripheral neural sheath tumor were obtained from the Sloan Kettering Institute. The following established cell lines were purchased from the American Type Culture Collection (ATCC, Manassas, VA), Sor the received from the NCI repository:, PANC-1 pancreatic carcinoma (CRL-1469, RRID:CVCL_0480), OVCAR-5 ovarian carcinoma (RRID:CVCL_1628), OVCAR-8 ovarian carcinoma (RRID:CVCL_1629), , MCF-7 breast carcinoma (CRL-12584, RRID:CVCL_0031), MDA-MB-231 breast carcinoma (CRL-12532, RRID:CVCL_0062), NCI-H1876 small cell lung carcinoma (CRL-5902, RRID:CVCL_1503), NCI-H510A small cell lung carcinoma (HTB-184, RRID:CVCL_1565), NCI-H1417 (CRL-5869, RRID:CVCL_1469), and NCI-H196 small cell lung carcinoma (CRL-5823, RRID:CVCL_1509). Dr. Peter Houghton (Greehey Children's Cancer Research Institute, University of Texas Health Science Center, San Antonio, TX) provided Rh-18 rhabdomyosarcoma (RRID:CVCL_1659). Pooled donor human umbilical vein endothelial cells (HUVEC, Lonza, cat. CC-2519) and human mesenchymal stem cells (hMSC, Lonza, cat. PT-2501) were purchased from Lonza (Walkersville, MD).
Cell Culture. […]
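Further: compound exposure lasted 7 days.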
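Wherever viability, T/C is given: 100% = DMSO vehicle control wells.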

NC1CCC(NC2CC2c2ccccc2)CC1 (stereo unspecified)
> 0.1 µM: IC50 (curve of compound)
inactive: viability, T/C (compound 0.000316 µM) 89.8% and 86.8% | viability, T/C (compound 0.001 µM) 94.3% and 87.5% | viability, T/C (compound 0.00316 µM) 87.3% and 94.4% | viability, T/C (compound 0.01 µM) 92.6% and 95.7% | viability, T/C (compound 0.0316 µM) 94.2% and 88.1% | viability, T/C (compound 0.1 µM) 86.1% and 94.9%

Cc1nc(N2CCC3(CC2)COC(C)C3N)c(CO)nc1Sc1ccnc(N)c1Cl (stereo unspecified) + CNC(C)C(=O)NC1CN(S(=O)(=O)c2cccc(S(=O)(=O)N3CCC4CCC(C(=O)NC(c5ccccc5)c5ccccc5)N4C(=O)C(NC(=O)C(C)NC)C3)c2)CCC2CCC(C(=O)NC(c3ccccc3)c3ccccc3)N2C1=O
> 3 µM: IC50 (curve of first compound, second compound 0.00316 µM) | IC50 (curve of first compound, second compound 0.01 µM) | IC50 (curve of first compound, second compound 0.0316 µM) | IC50 (curve of first compound, second compound 0.1 µM) | IC50 (curve of first compound, second compound 0.316 µM) | IC50 (curve of first compound, second compound 1 µM)
inactive: viability, T/C (second compound 0.00316 µM, first compound 0.00949 µM) 106% | viability, T/C (second compound 0.00316 µM, first compound 0.03 µM) 84.2% | viability, T/C (second compound 0.00316 µM, first compound 0.0949 µM) 85.5% | viability, T/C (second compound 0.00316 µM, first compound 0.3 µM) 86.6% | viability, T/C (second compound 0.00316 µM, first compound 0.949 µM) 81% | viability, T/C (second compound 0.00316 µM, first compound 3 µM) 70.3% | viability, T/C (second compound 0.01 µM, first compound 0.00949 µM) 96.2% | viability, T/C (second compound 0.01 µM, first compound 0.03 µM) 95.6% | viability, T/C (second compound 0.01 µM, first compound 0.0949 µM) 83.1% | viability, T/C (second compound 0.01 µM, first compound 0.3 µM) 85.5% | viability, T/C (second compound 0.01 µM, first compound 0.949 µM) 77.1% | viability, T/C (second compound 0.01 µM, first compound 3 µM) 71.8% | viability, T/C (second compound 0.0316 µM, first compound 0.00949 µM) 95.4% | viability, T/C (second compound 0.0316 µM, first compound 0.03 µM) 94.7% | viability, T/C (second compound 0.0316 µM, first compound 0.0949 µM) 81.3% | viability, T/C (second compound 0.0316 µM, first compound 0.3 µM) 78.8% | viability, T/C (second compound 0.0316 µM, first compound 0.949 µM) 77.6% | viability, T/C (second compound 0.0316 µM, first compound 3 µM) 69.1% | viability, T/C (second compound 0.1 µM, first compound 0.00949 µM) 96.8% | viability, T/C (second compound 0.1 µM, first compound 0.03 µM) 87% | viability, T/C (second compound 0.1 µM, first compound 0.0949 µM) 89.1% | viability, T/C (second compound 0.1 µM, first compound 0.3 µM) 88.1% | viability, T/C (second compound 0.1 µM, first compound 0.949 µM) 73.2% | viability, T/C (second compound 0.1 µM, first compound 3 µM) 66.3% | viability, T/C (second compound 0.316 µM, first compound 0.00949 µM) 92.3% | viability, T/C (second compound 0.316 µM, first compound 0.03 µM) 92.5% | viability, T/C (second compound 0.316 µM, first compound 0.0949 µM) 88.8% | viability, T/C (second compound 0.316 µM, first compound 0.3 µM) 83% | viability, T/C (second compound 0.316 µM, first compound 0.949 µM) 73.6% | viability, T/C (second compound 0.316 µM, first compound 3 µM) 66.5% | viability, T/C (second compound 1 µM, first compound 0.00949 µM) 84.1% | viability, T/C (second compound 1 µM, first compound 0.03 µM) 82.2% | viability, T/C (second compound 1 µM, first compound 0.0949 µM) 82% | viability, T/C (second compound 1 µM, first compound 0.3 µM) 73.5% | viability, T/C (second compound 1 µM, first compound 0.949 µM) 69.3% | viability, T/C (second compound 1 µM, first compound 3 µM) 64%

O=C(c1cc(Cc2n[nH]c(=O)c3ccccc23)ccc1F)N1CCN(C(=O)C2CC2)CC1 + CCN1C(C(=O)NC23CCC(C(=O)O)(CC2)CC3)C(c2cccc(Cl)c2F)C2(C(=O)Nc3cc(Cl)ccc32)C12CCCCC2
inactive: viability, T/C (second compound 0.00949 µM, first compound 0.0316 µM) 99.4% | viability, T/C (second compound 0.00949 µM, first compound 0.1 µM) 102% | viability, T/C (second compound 0.00949 µM, first compound 0.316 µM) 95.9% | viability, T/C (second compound 0.00949 µM, first compound 1 µM) 104% | viability, T/C (second compound 0.00949 µM, first compound 3.16 µM) 106% | viability, T/C (second compound 0.00949 µM, first compound 10 µM) 91.5% | viability, T/C (second compound 0.03 µM, first compound 0.0316 µM) 103% | viability, T/C (second compound 0.03 µM, first compound 0.1 µM) 88.8% | viability, T/C (second compound 0.03 µM, first compound 0.316 µM) 94.6% | viability, T/C (second compound 0.03 µM, first compound 1 µM) 97.4% | viability, T/C (second compound 0.03 µM, first compound 3.16 µM) 96.9% | viability, T/C (second compound 0.03 µM, first compound 10 µM) 89.9% | viability, T/C (second compound 0.0949 µM, first compound 0.0316 µM) 98.5% | viability, T/C (second compound 0.0949 µM, first compound 0.1 µM) 85.4% | viability, T/C (second compound 0.0949 µM, first compound 0.316 µM) 92.7% | viability, T/C (second compound 0.0949 µM, first compound 1 µM) 89.8% | viability, T/C (second compound 0.0949 µM, first compound 3.16 µM) 89.1% | viability, T/C (second compound 0.0949 µM, first compound 10 µM) 81.4% | viability, T/C (second compound 0.3 µM, first compound 0.0316 µM) 87.9% | viability, T/C (second compound 0.3 µM, first compound 0.1 µM) 80.1% | viability, T/C (second compound 0.3 µM, first compound 0.316 µM) 83.4% | viability, T/C (second compound 0.3 µM, first compound 1 µM) 83.2% | viability, T/C (second compound 0.3 µM, first compound 3.16 µM) 76.4% | viability, T/C (second compound 0.3 µM, first compound 10 µM) 83.7% | viability, T/C (second compound 0.949 µM, first compound 0.0316 µM) 76.7% | viability, T/C (second compound 0.949 µM, first compound 0.1 µM) 75.2% | viability, T/C (second compound 0.949 µM, first compound 0.316 µM) 74.3% | viability, T/C (second compound 0.949 µM, first compound 1 µM) 75.8% | viability, T/C (second compound 0.949 µM, first compound 3.16 µM) 75.5% | viability, T/C (second compound 0.949 µM, first compound 10 µM) 72% | viability, T/C (second compound 3 µM, first compound 0.0316 µM) 72.3% | viability, T/C (second compound 3 µM, first compound 0.1 µM) 69.1% | viability, T/C (second compound 3 µM, first compound 0.316 µM) 70.9% | viability, T/C (second compound 3 µM, first compound 1 µM) 71.7% | viability, T/C (second compound 3 µM, first compound 3.16 µM) 70.6% | viability, T/C (second compound 3 µM, first compound 10 µM) 74.7%
> 10 µM: IC50 (curve of first compound, second compound 0.00949 µM) | IC50 (curve of first compound, second compound 0.03 µM) | IC50 (curve of first compound, second compound 0.0949 µM) | IC50 (curve of first compound, second compound 0.3 µM) | IC50 (curve of first compound, second compound 0.949 µM) | IC50 (curve of first compound, second compound 3 µM)
